# Tested on: Wister-ST male rats
# Assay: Total plasma cholesterol lowering effect of DFA and isoflavone in combination, rats fed for 19 days
# Assay type: in vivo
# Conditions: 1.5% in isoflavone-containing feed
# Excerpt: A total plasma cholesterol lowering effect was studied using DFA and an isoflavone in combination.
# After preliminary feeding 21 Wister-ST male rats (6 weeks of age) a non-isoflavone feed for 3 days, the animals were divided into 3 groups (each n=7) by a body weight stratification procedure and were individually fed for 19 days a basal feed containing 0.25% food product supplemented with 40% isoflavone (basal diet group), a feed in which cellulose in the basal feed was replaced with 1.5% (final) DFA III (DFA III group), and a feed in which cellulose in the basal feed was replaced with 1.5% (final) fructooligosaccharide (FOS group), as shown in Table 1. On the 20th day, blood samples were taken from the abdominal aorta to obtain plasma by centrifugation and the total plasma cholesterol was measured using an automatic analyzer (DRI-CHEM 3500, Fuji Film Medical).
# In the table, figures with different alphabets, a and b, denote that there is a significant difference between the figures. […] The level of HDL cholesterol was slightly low in the DFA III group; however, the differences between the groups were not significant.
compound,measurement,setting,value
"OC[C@H]1O[C@@]2(CO[C@]3(CO)O[C@H](CO)[C@@H](O)[C@@H]3O2)[C@@H](O)[C@@H]1O [DFA III, difructose anhydride]",level of HDL cholesterol (in words),differences between groups not significant,slightly low
same,total serum cholesterol level compared to the group fed an isoflavone alone (in words),p=0.051 (Sheffe) basal diet vs DFA III,tended to be lowered

# Reference: patent US20080132466A1, “Blood Cholesterol Reducing Oral Composition” (priority 2005, published 2008)
